# Read-outs that look alike come from different tables or passages of the source.
# Tested on: streptavidin
# Description: The fluid channel was at first flown with Tris buffer from syringe A into the device 400 received at the corresponding inlet 411.
# The acquired signals were measured from the drain current of the exemplary FET 432. […] This was similarly repeated with 1 mM streptavidin protein in the Tris buffer from syringe B. For example, 20 mM Tris buffer (pH=7.4) was prefilled in the channel and then 1 mM avidin was flowed in the 20 mM Tris buffer in the channel.
compound,measurement,setting,value
O=C(O)CCCC[C@@H]1SC[C@@H]2NC(=O)N[C@@H]21 [biotin],binding indicated by FET signal waveform,pre-mixed 0.2 mM streptavidin with 4 mM biotin (1:20) in Tris buffer,some biotin molecules have bonded with streptavidin
same,binding indicated by FET signal waveform,pre-mixed 1 mM streptavidin with 4 mM biotin in Tris buffer,streptavidin and biotin bind together
